# Test results published in US8822674B2, “Crystal form of 4-isopropylphenyl glucitol compound and process for production thereof” (Taisho Pharmaceutical Co., Ltd, priority 2010, dated 2014).
# Legend:
# [1] = Renal concentrations until one week after single oral administration; format: in vivo; settings: Sprague-Dawley (SD/IGS), rat, 1 mg/kg po, male Sprague-Dawley rats, kidney
# Procedure: SD/IGS rats at 7 weeks of age (male, non-fasting, Charles River Laboratories Japan Inc.) were orally administered with compound 4, 10 or 33 (1 mg/kg each) or compound 11 (0.3 mg/kg) prepared in a 0.5% aqueous CMC solution. At 24, 72 and 168 hours after drug administration, the rats were exsanguinated via the postcaval vein under ether anesthesia, and their kidneys were excised after they were confirmed to be euthanized. After the tissue surface was washed with physiological saline, each tissue was measured for its weight and homogenized in 4 volumes of purified water under ice cooling. To each homogenate, an acetonitrile/methanol solution containing an internal standard substance was added to remove proteins, and the supernatant was then subjected to LC-MS/MS (Applied Biosystems API3000). Drug-derived ions generated by electrospray ionization in positive ion mode were detected by selective reaction monitoring. The peak area of the resulting extracted ion chromatogram was analyzed by the internal standard method to calculate the drug concentration in the homogenate.
# As the internal standard material for Compounds 10 and 33, (1S)-1,5-anhydro-1-[5-(4-ethoxybenzyl)-2-methoxy-4-methylphenyl]-1-thio-D-glucitol,ethyl-D5 was used. As the internal standard materials for Compounds 4 and 11, Compound II and deuterium-labeled Compound II (trishydroxymethyl-D6; —C(CD2OH)3), respectively, were used.
# [2] = Renal concentration after repeated oral administration for 3 days; format: in vivo, rat; settings: 3 mg/kg for 3 consecutive days, subsequent day 2
# Procedure: At 48 hours after the final drug administration, the rats were exsanguinated via the postcaval vein under isoflurane anesthesia, and their kidneys were excised after they were confirmed to be euthanized. After the tissue surface was washed with physiological saline, each tissue was measured for its weight and homogenized in 4 volumes of purified water under ice cooling. The drug concentration in each homogenate was determined in the same manner as shown in Test Example 3(1) by LC-MS/MS using compound II as an internal standard substance.
# human SGLT1 = target: T1, human SGLT1 (Homo sapiens, UniProt P13866); assay: Inhibition test for sodium-dependent sugar uptake in CHO-K1 cells stably expressing human SGLT1; format: cell-based; settings: summary of Table 1
# T1 construct: expressed in transfected cells; host or cells: CHO-K1
# T1 sequence (P13866 1-664): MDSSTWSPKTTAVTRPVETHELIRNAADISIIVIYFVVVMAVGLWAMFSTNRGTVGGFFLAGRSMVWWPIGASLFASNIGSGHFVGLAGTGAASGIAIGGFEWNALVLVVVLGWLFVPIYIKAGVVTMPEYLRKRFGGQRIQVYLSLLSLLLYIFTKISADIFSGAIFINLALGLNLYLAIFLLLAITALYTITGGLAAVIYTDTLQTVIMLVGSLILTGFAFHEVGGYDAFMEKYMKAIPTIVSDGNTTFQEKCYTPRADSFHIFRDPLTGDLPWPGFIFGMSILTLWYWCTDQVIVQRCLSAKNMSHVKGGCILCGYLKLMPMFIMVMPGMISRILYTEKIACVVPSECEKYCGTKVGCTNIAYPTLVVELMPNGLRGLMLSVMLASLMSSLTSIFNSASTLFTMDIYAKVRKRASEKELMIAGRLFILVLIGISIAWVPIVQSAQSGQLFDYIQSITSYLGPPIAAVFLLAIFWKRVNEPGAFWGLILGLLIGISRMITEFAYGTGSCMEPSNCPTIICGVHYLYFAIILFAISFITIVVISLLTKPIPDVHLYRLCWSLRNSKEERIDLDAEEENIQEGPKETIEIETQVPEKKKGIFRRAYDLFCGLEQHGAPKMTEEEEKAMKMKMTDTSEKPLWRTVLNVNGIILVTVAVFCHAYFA
# Procedure: (§1) A plasmid vector expressing human SGLT1 protein was transfected into CHO-K1 cells using lipofectamine 2000 (Invitrogen). The cells were cultured in the presence of 500 μg/mL geneticin to select resistant strains, followed by screening in the system shown below using sugar uptake capacity as an indicator to obtain SGLT1-expressing cells.
# (§2) The stably expressing cells prepared above were used in the following test.
# Pretreatment buffer (140 mM choline chloride, 2 mM KCl, 1 mM CaCl2, 1 mM MgCl2, 10 mM HEPES/5 mM Tris, pH 7.4) was added in a volume of 200 μL to the cells stably expressing SGLT1 or 2 mL for Method A and 200 μL for Method B to the cells stably expressing SGLT2, followed by incubation for 20 minutes. The pretreatment buffer was removed and replaced by uptake buffer containing a test compound (1 mM methyl α-D-glucopyranoside (containing [^14C]methyl α-D-glucopyranoside), 140 mM NaCl, 2 mM KCl, 1 mM CaCl2, 1 mM MgCl2, 10 mM HEPES/5 mM Tris, pH 7.4) in a volume of 75 μL for SGLT1 and SGLT2 in Method B or 200 μL for SGLT2 in Method A. Uptake reaction was performed at 37° C. for 30 minutes (SGLT1) or 60 minutes (SGLT2). […] A liquid scintillator (Perkin Elmer) was added and mixed well with each sample, followed by measurement of radioactivity using a β-ray analyzer. […]
# [3] = target: T2, human SGLT2 protein modified to have LeuGluSerArgGlyProVal added to the carboxy-terminal final residue (Homo sapiens, UniProt P31639); assay: Inhibition test for sodium-dependent sugar uptake in CHO-K1 cells stably expressing human SGLT2, Method A; format: cell-based; settings: summary of Table 1; method not specified
# T2 construct: expressed in transfected cells; host or cells: CHO-K1
# T2 sequence (P31639 with tags, fused parts or gaps): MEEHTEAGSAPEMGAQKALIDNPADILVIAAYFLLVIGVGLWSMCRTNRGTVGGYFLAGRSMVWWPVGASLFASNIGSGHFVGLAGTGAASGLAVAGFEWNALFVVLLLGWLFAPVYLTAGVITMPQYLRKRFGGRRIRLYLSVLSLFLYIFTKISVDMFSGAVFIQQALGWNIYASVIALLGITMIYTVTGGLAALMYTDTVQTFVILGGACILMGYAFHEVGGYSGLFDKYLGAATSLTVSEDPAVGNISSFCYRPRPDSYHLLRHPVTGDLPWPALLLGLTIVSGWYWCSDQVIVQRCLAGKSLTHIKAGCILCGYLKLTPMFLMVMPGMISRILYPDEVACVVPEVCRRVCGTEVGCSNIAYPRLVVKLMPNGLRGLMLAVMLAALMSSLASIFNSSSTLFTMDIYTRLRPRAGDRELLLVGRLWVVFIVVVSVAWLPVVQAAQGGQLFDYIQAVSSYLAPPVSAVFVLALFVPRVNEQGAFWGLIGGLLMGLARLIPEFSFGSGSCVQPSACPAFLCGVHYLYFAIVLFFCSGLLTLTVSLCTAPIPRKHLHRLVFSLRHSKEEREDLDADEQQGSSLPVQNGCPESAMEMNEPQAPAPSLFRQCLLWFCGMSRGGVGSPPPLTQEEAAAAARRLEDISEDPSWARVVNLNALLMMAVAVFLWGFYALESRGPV
# Procedure: as §1, with “Method A (described in WO2007/136116): A” for “A”, “SGLT2” for “SGLT1”, “protein modified to have LeuGluSerArgGlyProVal added to the carboxy-terminal final residue” for “protein”, “hygromycin B” for “geneticin”, “SGLT2-expressing” for “SGLT1-expressing”
# as §2
# Pretreatment buffer (140 mM choline chloride, 2 mM KCl, 1 mM CaCl2, 1 mM MgCl2, 10 mM HEPES/5 mM Tris, pH 7.4) was added in a volume of 200 μL to the cells stably expressing SGLT1 or 2 mL for Method A and 200 μL for Method B to the cells stably expressing SGLT2, followed by incubation for 20 minutes. […] A liquid scintillator (Perkin Elmer) was added and mixed well with each sample, followed by measurement of radioactivity using a β-ray analyzer. […]
# [4] = tested on: streptozotocin (STZ)-induced diabetic rats; assay: Oral glucose tolerance test in streptozotocin diabetic model rats; format: in vivo, rat
# Procedure: SD/IGS rats at 7 weeks of age (male, Charles River Laboratories Japan Inc.) were fasted for about 16 hours and then injected with 50 mg/kg streptozotocin (STZ) via the caudal vein under ether anesthesia to prepare diabetic model rats. Similarly, another group of SD/IGS rats at 7 weeks of age was injected with 1.25 mmol/L citric acid in physiological saline (1 mL/kg) via the tail vein under ether anesthesia to prepare normal control rats. At one week after injection of STZ or 1.25 mmol/L citric acid in physiological saline, the rats (8 weeks old) were provided for an oral glucose tolerance test. […]
# Blood was collected from the caudal veins of the rats under ether anesthesia with the use of a heparin-coated blood collecting tube and centrifuged, whereafter blood plasma was separated. Plasma glucose concentrations were quantified by measurement with a Glucose CII-Test Wako (Wako Pure Chemical Industries, Ltd., Japan). To determine the intensity of hypoglycemic effect, the blood glucose level before drug administration was subtracted from each blood glucose level measured until one hour after oral administration in each drug group, and the resulting values were analyzed by the trapezoidal method to calculate an increment in the area under the curve for glucose (ΔAUC), which was expressed as a decrease relative to ΔAUC of the control group.
"concentration at 1 day ([1]; 1 day, read-out: Concentration of compounds in kidney after single oral administration, After 1 day) [ng/g]","concentration at 3 days ([1]; 3 days, read-out: Concentration of compounds in kidney after single oral administration, After 3 days) [ng/g]","concentration at 7 days ([1]; 7 days, read-out: Concentration of compounds in kidney after single oral administration, After 7 days) [ng/g]",remaining in the kidney after repeated administration (in words) [2],SGLT1 inhibiting activity (in words) (human SGLT1),SGLT2 inhibiting activity (in words) [3],SMILES,"STZ rats OGTT % inhibition ΔAUC0−1 h (mg/dl) @1 mg/kg/po ([4]; STZ-induced diabetic rats, oral dose 1 mg/kg, glucose 2 g/kg, versus vehicle control) [%]",hypoglycemic action in the glucose tolerance test (in words) ([4]; oral administration of 1 mg/kg)
68.4 ± 7.49,85.5 ± 23.1,76.3 ± 15.5,,,,Cc1cc(O)c([C@@H]2O[C@H](CO)[C@@H](O)[C@H](O)[C@H]2O)cc1Cc1ccc(CCCC(=O)NC(C)(C)C(N)=O)cc1 [compound 4],,
,,,did not remain in the kidney,strong,"some, although weak","COc1cc(C(C)C)c(Cc2ccc(/C=C/C(C)(C)C(=O)NC(C)(C)C(=O)NCCN(C)C)cc2)cc1[C@@H]1O[C@H](CO)[C@@H](O)[C@H](O)[C@H]1O [compound (A), (1S)-1,5-anhydro-1-[5-(4-{(1E)-4-[(1-{[2-(dimethylamino)ethyl]amino}-2-methyl-1-oxopropan-2-yl)amino]-3,3-dimethyl-4-oxobut-1-en-1-yl}benzyl)-2-methoxy-4-(propan-2-yl)phenyl]-D-glucitol]",65,potent
